Assays:
Assay type in all cases: in vivo, mice
platelets = assay: Platelet recovery in peripheral blood after 5FU; details: after 5FU 150 mg/kg once; ABC294640 10 mg/kg every other day; days 0, 1, 5, 11; vs solvent control; FIG. 6
Method: Preparation of the SphK2 inhibitor was as described in Example 4. Twelve 8-week-old C57 mice purchased from Laboratory Animal Center, Sun Yat-sen University were selected and divided evenly into two groups. The mice were intraperitoneally injected with 5FU at a dose of 150 mg/kg once. The injection of the inhibitor ABC294640 and the solvent control solution was as described in Example 4, which started from the day after 5-fluorouracil injection, followed by injections once every other day, at a dose of 10 mg/kg, until the end of the experiment. Periphery blood (PB) of each mouse was separately collected to determine white blood cell (WBC) counts 0, 1, 5 and 11 days after 5-FU administration. T-test analysis was carried out using Graphpad6.0, and differences were considered statistically significant when P<0.05.
The experiment was conducted as described in Example 5. Periphery blood (PB) of each mouse was separately collected to determine platelets (PLT) counts 0, 1, 5 and 11 days after 5-FU administration. T-test analysis was carried out using Graphpad6.0, and differences were considered statistically significant when P<0.05.

white blood cells = assay: White blood cell recovery after bone marrow transplantation; details: 7-35 days after bone marrow transplantation; ABC294640 10 mg/kg every other day; vs solvent control
Method: Twenty-five 8-week-old C57 mice (purchased from Laboratory Animal Center, Sun Yat-sen University) were selected and kept in a specific pathogen free (SPF) environment. 5 mice were randomly selected and sacrificed by cervical dislocation. Femurs and tibias were taken and the bone marrow was obtained from the bone marrow cavity with an 1 ml syringe. Bone marrow was dispersed to form a single cell suspension and lysed with red blood cell lysis buffer for 2 min to remove red blood cells, followed by filtering through a 70 μm filter screen to obtain a single cell suspension. The other 20 mice were treated with X-ray radiation at a dose of 900 cGy, and were injected with 400,000 of the prepared bone marrow single cell suspension via tail vein, respectively. Then, the recipient mice were divided evenly into 2 groups, and mice of the ABC294640 treatment group were subjected to intraperitoneal injection of ABC294640 every other day. Mice in the control group was injected with a solvent solution control (1:1 of physiological saline: PEG400) solution. ABC294640 was purchased from Selleck and dissolved in dimethyl sulfoxide (DMSO), and diluted with a mixture solution of polyethylene glycol 400 (PEG400) and physiological saline (1:1) to be administered at a dose of 10 mg/kg.
Preparation of SphK2 inhibitors was as described in Example 10. […]

hematopoietic stem cells [1] = assay: Hematopoietic stem cell number in bone marrow after 5FU injury with ABC294640 treatment; details: vs solvent control
Method: In order to calculate the number of hematopoietic stem cells in mice, statistical quantification was performed for the number of hematopoietic stem cells using the molecular marker system Lin^−Sca1^+c-Kit^+CD150^+CD48^−, in combination with flow cytometry. Briefly, 2 million bone marrow cells were resuspended in 100 μl PBS, and 2 μl of a combination of anti-Lin, anti-Sca-1, anti-c-Kit, anti-CD150 and anti-CD48 was added. Samples were kept on ice for 1 h and washed with 1 ml of PBS, then resuspended with […] of PBS for flow cytometry analysis to determine the number of hematopoietic stem cells in the mouse bone marrow. T-test analysis was carried out using Graphpad6.0, and the difference was considered statistically significant when P<0.05. Twenty 8-week-old C57 mice (purchased from Laboratory Animal Center, Sun Yat-sen University) were injected intraperitoneally with 5FU at a dose of 150 mg/kg, respectively. After 5FU treatment, control mice (10 mice) were injected with a solvent control solution (1:1 physiological saline: PEG400) and the SphK2 inhibitor treatment mice (10 mice) were injected with the SphK2 inhibitor ABC294640. Briefly, 5FU was injected on day 1, and the inhibitor and solvent control solution were injected on day 2 and every other day, for five times in total. […] The SphK2 inhibitor ABC294640 was purchased from Selleck and dissolved in dimethyl sulfoxide (DMSO), it was then diluted with a mixture solution of polyethylene glycol 400 (PEG400) and physiological saline (1:1), and was injected to the mice with a dose of 10 mg/kg. T-test analysis was carried out using Graphpad6.0, and the differences were considered statistically significant when P<0.05.

hematopoietic stem cells [2] = assay: Serial transplantation repopulation assay of bone marrow cells after 5FU and ABC294640 treatment
Source text: FIG. 28. illustrates the quantification of functional HSCs by transplantation assay. 2×10^5 bone marrow cells from C57BL/6J mice after 5FU and ABC294640 or vehicle control treatment were transplanted into […] mice along with 2×10^5 recipient bone marrow cells. 1×10^6 bone marrow cells from primary or secondary recipient mice were transplanted into […] mice in secondary or tertiary recipients respectively. PB analysis for total engrafted donor cells at the indicated number of weeks after transplantation. FIG. 29. illustrates the percentage of donor-derived B, T and myeloid lineage cells at 16 weeks after transplantation. Repopulation analyses was also performed to investigate whether ABC294640 treatment functionally promotes HSC regeneration after chemotherapeutic stress.

[3] = day 14 post 5FU treatment, FIG. 26
[4] = 16 weeks after transplantation, FIG. 29
[5] = at 16 weeks, donor bone marrow after 5FU and ABC294640 vs solvent control, FIG. 28

O=C(NCc1ccncc1)C12CC3CC(C1)CC(c1ccc(Cl)cc1)(C3)C2 [ABC294640, 3-(4-chloro-phenyl)-adamantane-1-carboxylic acid (pyridin-4-ylmethyl)-amide]
number of platelets from the peripheral blood (platelets): significantly increased | number of white blood cells in the peripheral blood (white blood cells): significantly (*P<0.05, **P<0.01 and ***P<0.001) increased | number of hematopoietic stem cells in bone marrow (hematopoietic stem cells [1]; after 5FU 150 mg/kg i.p., ABC294640 10 mg/kg every other day x5, day 12, **P<0.01, FIG. 4): increased significantly | increase of CD150 HSC pool size (hematopoietic stem cells [1]; [3]): about 2.2 fold | increase of LT-HSC pool size (hematopoietic stem cells [1]; [3]): about 2.2 fold | increase of ST-HSC pool size (hematopoietic stem cells [1]; [3]): about 1.6 fold | lymphopoiesis in recipients (hematopoietic stem cells [2]; [4]): markedly promoted lymphopoiesis | myeloid skewing in recipients (hematopoietic stem cells [2]; [4]): suppressed myeloid skewing | increase of reconstitution, primary transplantation (hematopoietic stem cells [2]; [5]): about 1.7 fold | increase of reconstitution, secondary transplantation (hematopoietic stem cells [2]; [5]): about 1.5 fold | increase of reconstitution, tertiary transplantation (hematopoietic stem cells [2]; [5]): about 1.9 fold

Source: patent US20210369691A1, “METHODS AND COMPOSITIONS FOR IMPROVING BONE MARROW HEMATOPOIETIC FUNCTIONS” (Sun Yat-Sen University, priority 2018, published 2021)
